Results published in patent publication US20250255304A1, “HIGHLY TRA[…] CONTROLLING COMPOSITION” (ZM Crop Protection Corporation, priority 2022, published 2025).

Assays:
Assay type in all cases: in vivo
[1] = test system: Coptotermes formosanus Shiraki; experiment: Test Example 1: effect of agent on gypsum treated with test agent solution; conditions: dicloromezotiaz 0.023%, imidacloprid 0.1%, fipronil 0.03% test agent solution on gypsum
Procedure: A test agent solution containing 0.023 parts of dicloromezotiaz was prepared by adding 99.875 parts of water to 0.125 parts of the aqueous suspension composition shown in Formulation Example 1.
In a comparative example, an aqueous suspension composition prepared by adding an agent solution, wherein 99 parts of water was added to 1 part of a flowable containing 10.0 parts of imidacloprid and which contained 0.1 parts of imidacloprid and a drug solution, wherein 299 parts of water was added to 1 part of a flowable containing 9.1 parts of fipronil and which contained 0.03 parts of fipronil, uniformly mixing same was used as a test agent solution of a comparative example.
As the imidacloprid formulation and the fipronil formulation, commercially available termite controlling agents were used and diluted solutions at practical agent concentrations thereof were used as test agent solutions.
Gypsum was cured and spread in a glass petri dish having a diameter of 90 mm, 15 ml of each of the test agent solution of the example and the test agent solution of the comparative example was uniformly dropped on the entire surface of the gypsum. Thereafter, ten workers of Coptotermes formosanus Shiraki were released into the petri dish and the petri dish was covered and left to stand in a thermostatic chamber (25° C./relative humidity 60%).
The number of abnormal termites and the number of dead termites among the released termites (Coptotermes formosanus Shiraki) were observed every one hour from immediately after the release of the termites (Coptotermes formosanus Shiraki) until ten hours passed and the total number of the abnormal termite rate and the dead termite rate was calculated as the abnormal or dead termite rate (%) according to [Expression 1] below and the rates of expression of the effects of the respective agents were compared. Each test agent was prepared in one petri dish as one plot and the test was carried out in two replicates.

[2] = test system: Coptotermes formosanus Shiraki; experiment: Test Example 2: primary transmission treatment effect
Procedure: (§1) A test agent solution containing 0.023 parts of dicloromezotiaz was prepared by adding 99.875 parts of water to 0.125 parts of the aqueous suspension composition shown in Formulation Example 1. As comparative examples, four types of commercially available neonicotinoid termite controlling agents and four types of slow-acting termite controlling agents shown in Table 2 were diluted with water at practical concentrations to prepare test agent solutions. The “agent concentration (%)” indicates the concentration of the active ingredient contained in each of the composition of the present invention and the termite controlling agents and the “test agent solution concentration (%)” indicates the concentration of the active ingredient in each of the prepared test agent solutions.
(§2) After 1.2 g of each of the test agent solutions of the example and the comparative examples diluted to a predetermined concentration and prepared was added to 4.8 g of soil, 6 g of the mixed soil was spread in a glass petri dish having a diameter of 50 mm and ten workers of Coptotermes formosanus Shiraki were released into the petri dish and exposed to the agent solution for 4 hours.

[3] = test system: Coptotermes formosanus Shiraki; experiment: Test Example 2: secondary transmission treatment effect
Procedure: as §1, §2

[4] = test system: Coptotermes formosanus Shiraki; experiment: Test Example 3: extirpation test with dust formulation using simulated termite trails

Cc1cccn2c(=O)c(-c3cc(Cl)cc(Cl)c3)c([O-])[n+](Cc3cnc(Cl)s3)c12 [Dicloromezotiaz, dicloromezotiaz]
Abnormal or dead termite rate (%) ([1]; time elapsed 1 h): 0%
Abnormal or dead termite rate (%) ([1]; time elapsed 2 h): 0%
Abnormal or dead termite rate (%) ([1]; time elapsed 3 h): 0%
Abnormal or dead termite rate (%) ([1]; time elapsed 4 h): 0%
Abnormal or dead termite rate (%) ([1]; time elapsed 5 h): 0%
Abnormal or dead termite rate (%) ([1]; time elapsed 6 h): 19%
Abnormal or dead termite rate (%) ([1]; time elapsed 7 h): 37%
Abnormal or dead termite rate (%) ([1]; time elapsed 8 h): 51%
Abnormal or dead termite rate (%) ([1]; time elapsed 9 h): 78%
Abnormal or dead termite rate (%) ([1]; time elapsed 10 h): 100%
Abnormal or dead termite rate (%) ([2]; after 1 day, Table 3, dicloromezotiaz 0.023%, fipronil 0.03%, imidacloprid 0.10%, chlorantraniliprole 0.05% solution in soil): 100%
Abnormal or dead termite rate (%) ([2]; after 1 day, Table 4, dicloromezotiaz 0.023%, chlorfenapyr 0.11%, clothianidin 0.05%, dinotefuran 0.20%, thiamethoxam 0.10%, broflanilide 0.03% solution in soil): 100%
Abnormal or dead termite rate (%) ([2]; after 3 days, Table 3, dicloromezotiaz 0.023%, fipronil 0.03%, imidacloprid 0.10%, chlorantraniliprole 0.05% solution in soil): 100%
Abnormal or dead termite rate (%) ([2]; after 3 days, Table 4, dicloromezotiaz 0.023%, chlorfenapyr 0.11%, clothianidin 0.05%, dinotefuran 0.20%, thiamethoxam 0.10%, broflanilide 0.03% solution in soil): 100%
Abnormal or dead termite rate (%) ([2]; after 7 days, Table 3, dicloromezotiaz 0.023%, fipronil 0.03%, imidacloprid 0.10%, chlorantraniliprole 0.05% solution in soil): 100%
Abnormal or dead termite rate (%) ([2]; after 7 days, Table 4, dicloromezotiaz 0.023%, chlorfenapyr 0.11%, clothianidin 0.05%, dinotefuran 0.20%, thiamethoxam 0.10%, broflanilide 0.03% solution in soil): 100%
Abnormal or dead termite rate (%) ([2]; after 14 days, Table 3, dicloromezotiaz 0.023%, fipronil 0.03%, imidacloprid 0.10%, chlorantraniliprole 0.05% solution in soil): 100%
Abnormal or dead termite rate (%) ([2]; after 14 days, Table 4, dicloromezotiaz 0.023%, chlorfenapyr 0.11%, clothianidin 0.05%, dinotefuran 0.20%, thiamethoxam 0.10%, broflanilide 0.03% solution in soil): 100%
Abnormal or dead termite rate (%) ([2]; after 21 days, Table 3, dicloromezotiaz 0.023%, fipronil 0.03%, imidacloprid 0.10%, chlorantraniliprole 0.05% solution in soil): 100%
Abnormal or dead termite rate (%) ([2]; after 21 days, Table 4, dicloromezotiaz 0.023%, chlorfenapyr 0.11%, clothianidin 0.05%, dinotefuran 0.20%, thiamethoxam 0.10%, broflanilide 0.03% solution in soil): 100%
Abnormal or dead termite rate (%) ([3]; after 1 day, Table 5, dicloromezotiaz 0.023%, fipronil 0.03%, imidacloprid 0.10%, chlorantraniliprole 0.05% solution in soil): 8.9%
Abnormal or dead termite rate (%) ([3]; after 1 day, Table 6, dicloromezotiaz 0.023%, chlorfenapyr 0.11%, clothianidin 0.05%, dinotefuran 0.20%, thiamethoxam 0.10%, broflanilide 0.03% solution in soil): 2.2%
Abnormal or dead termite rate (%) ([3]; after 3 days, Table 5, dicloromezotiaz 0.023%, fipronil 0.03%, imidacloprid 0.10%, chlorantraniliprole 0.05% solution in soil): 83%
Abnormal or dead termite rate (%) ([3]; after 3 days, Table 6, dicloromezotiaz 0.023%, chlorfenapyr 0.11%, clothianidin 0.05%, dinotefuran 0.20%, thiamethoxam 0.10%, broflanilide 0.03% solution in soil): 44%
Abnormal or dead termite rate (%) ([3]; after 7 days, Table 5, dicloromezotiaz 0.023%, fipronil 0.03%, imidacloprid 0.10%, chlorantraniliprole 0.05% solution in soil): 91%
Abnormal or dead termite rate (%) ([3]; after 7 days, Table 6, dicloromezotiaz 0.023%, chlorfenapyr 0.11%, clothianidin 0.05%, dinotefuran 0.20%, thiamethoxam 0.10%, broflanilide 0.03% solution in soil): 88%
Abnormal or dead termite rate (%) ([3]; after 14 days, Table 5, dicloromezotiaz 0.023%, fipronil 0.03%, imidacloprid 0.10%, chlorantraniliprole 0.05% solution in soil): 91%
Abnormal or dead termite rate (%) ([3]; after 14 days, Table 6, dicloromezotiaz 0.023%, chlorfenapyr 0.11%, clothianidin 0.05%, dinotefuran 0.20%, thiamethoxam 0.10%, broflanilide 0.03% solution in soil): 88%
Abnormal or dead termite rate (%) ([3]; after 21 days, Table 5, dicloromezotiaz 0.023%, fipronil 0.03%, imidacloprid 0.10%, chlorantraniliprole 0.05% solution in soil): 92%
Abnormal or dead termite rate (%) ([3]; after 21 days, Table 6, dicloromezotiaz 0.023%, chlorfenapyr 0.11%, clothianidin 0.05%, dinotefuran 0.20%, thiamethoxam 0.10%, broflanilide 0.03% solution in soil): 84%
Abnormal or dead termite rate (%) ([4]; active ingredient concentration 0.10%, 1 h): 0%
Abnormal or dead termite rate (%) ([4]; active ingredient concentration 0.10%, 2 h): 0%
Abnormal or dead termite rate (%) ([4]; active ingredient concentration 0.10%, 3 h): 0%
Abnormal or dead termite rate (%) ([4]; active ingredient concentration 0.10%, 4 h): 25%
Abnormal or dead termite rate (%) ([4]; active ingredient concentration 0.10%, 5 h): 35%
Abnormal or dead termite rate (%) ([4]; active ingredient concentration 0.10%, 6 h): 40%
Abnormal or dead termite rate (%) ([4]; active ingredient concentration 0.10%, 7 h): 40%
Abnormal or dead termite rate (%) ([4]; active ingredient concentration 0.10%, 1 day): 85%
Abnormal or dead termite rate (%) ([4]; active ingredient concentration 0.10%, 2 days): 100%
Abnormal or dead termite rate (%) ([4]; active ingredient concentration 0.10%, 3 days): 100%
Abnormal or dead termite rate (%) ([4]; active ingredient concentration 0.10%, 7 days): 100%
Abnormal or dead termite rate (%) ([4]; active ingredient concentration 0.25%, 1 h): 0%
Abnormal or dead termite rate (%) ([4]; active ingredient concentration 0.25%, 2 h): 0%
Abnormal or dead termite rate (%) ([4]; active ingredient concentration 0.25%, 3 h): 25%
Abnormal or dead termite rate (%) ([4]; active ingredient concentration 0.25%, 4 h): 25%
Abnormal or dead termite rate (%) ([4]; active ingredient concentration 0.25%, 5 h): 60%
Abnormal or dead termite rate (%) ([4]; active ingredient concentration 0.25%, 6 h): 100%
Abnormal or dead termite rate (%) ([4]; active ingredient concentration 0.25%, 7 h): 100%
Abnormal or dead termite rate (%) ([4]; active ingredient concentration 0.25%, 1 day): 100%
Abnormal or dead termite rate (%) ([4]; active ingredient concentration 0.25%, 2 days): 100%
Abnormal or dead termite rate (%) ([4]; active ingredient concentration 0.25%, 3 days): 100%
Abnormal or dead termite rate (%) ([4]; active ingredient concentration 0.25%, 7 days): 100%
Abnormal or dead termite rate (%) ([4]; active ingredient concentration 0.5%, 1 h): 0%
Abnormal or dead termite rate (%) ([4]; active ingredient concentration 0.5%, 2 h): 0%
Abnormal or dead termite rate (%) ([4]; active ingredient concentration 0.5%, 3 h): 45%
Abnormal or dead termite rate (%) ([4]; active ingredient concentration 0.5%, 4 h): 45%
Abnormal or dead termite rate (%) ([4]; active ingredient concentration 0.5%, 5 h): 100%
Abnormal or dead termite rate (%) ([4]; active ingredient concentration 0.5%, 6 h): 100%
Abnormal or dead termite rate (%) ([4]; active ingredient concentration 0.5%, 7 h): 100%
Abnormal or dead termite rate (%) ([4]; active ingredient concentration 0.5%, 1 day): 100%
Abnormal or dead termite rate (%) ([4]; active ingredient concentration 0.5%, 2 days): 100%
Abnormal or dead termite rate (%) ([4]; active ingredient concentration 0.5%, 3 days): 100%
Abnormal or dead termite rate (%) ([4]; active ingredient concentration 0.5%, 7 days): 100%
Abnormal or dead termite rate (%) ([4]; active ingredient concentration 1%, 1 h): 0%
Abnormal or dead termite rate (%) ([4]; active ingredient concentration 1%, 2 h): 30%
Abnormal or dead termite rate (%) ([4]; active ingredient concentration 1%, 3 h): 85%
Abnormal or dead termite rate (%) ([4]; active ingredient concentration 1%, 4 h): 85%
Abnormal or dead termite rate (%) ([4]; active ingredient concentration 1%, 5 h): 100%
Abnormal or dead termite rate (%) ([4]; active ingredient concentration 1%, 6 h): 100%
Abnormal or dead termite rate (%) ([4]; active ingredient concentration 1%, 7 h): 100%
Abnormal or dead termite rate (%) ([4]; active ingredient concentration 1%, 1 day): 100%
Abnormal or dead termite rate (%) ([4]; active ingredient concentration 1%, 2 days): 100%
Abnormal or dead termite rate (%) ([4]; active ingredient concentration 1%, 3 days): 100%
Abnormal or dead termite rate (%) ([4]; active ingredient concentration 1%, 7 days): 100%
